The source of these data is patent US5998426A, “9,10 disubstituted camptothecin derivatives with antitumor activity” (Pharmacia & Upjohn S.p.A., priority 1996, dated 1999).

The assay concerns L1210 cells (murine lymphocytic leukemia). Put plainly: Cytotoxic activity in vitro on L1210 cells (50% inhibition of cellular growth) after 48 h continuous treatment. The assay is classed as cell-based. The settings on record: Mus musculus, total cells counted with Coulter Counter, DMSO final concentration 0.5%, read-out: IC50 (concentration inhibiting 50% of cell growth). As for the experimental part: The IC50 was determined for each compound of formula (Ia), (Ib) and (Ic) from dose-response curves counting the total number of cells with a Coulter Counter (Kontron mod. ZM).
The tested compounds were dissolved in dimethylsulfoxide (DMSO) at a final concentration of 0.5%.

For the compound `CCc1c2c(nc3ccc(OS(=O)(=O)c4ccc(C)cc4)c(N)c13)-c1cc3c(c(=O)n1C2)COC(=O)[C@]3(O)CC` [Formula (Ic), 7-ethyl-9-amino-10-(p-toluenesulfonyloxy)-20(S)-camptothecin], the IC50 was 4.6 ± 0.1 ng/mL.

Turning to `CC[C@@]1(O)C(=O)OCc2c1cc1n(c2=O)Cc2cc3c(N)c(OS(=O)(=O)c4cccc5ccccc45)ccc3nc2-1` [Formula (Ia), 9-amino-10-(1-naphthylsulfonyloxy)-20(S)-camptothecin], the IC50 was determined as 2.2 ± 0.3 ng/mL.

Regarding `CC[C@@]1(O)C(=O)OCc2c1cc1n(c2=O)Cc2cc3c(N)c(OS(=O)(=O)c4ccccc4)ccc3nc2-1` [Formula (Ib), 9-amino-10-phenylsulfonyloxy-20(S)-camptothecin], the IC50 came to 6.8 ± 0.4 ng/mL.
